{"source": "patent US7754880B2", "about": "“Uracils having a herbicidal activity” (Isagro Ricerca S.r.l., priority 2002, dated 2010)", "assay_type_in_all_cases": "in vivo", "conditions_in_all_cases": "dosage of 15 g/ha, fifteen days after the treatment, damage vs non-treated plants", "key": {"Ipomea purpurea [1]": {"test_system": "Ipomea purpurea", "experiment": "Herbicidal activity in pre-emergence", "method": "(§1) Determination of the Herbicidal Activity and Phytotoxicity in Pre-Emergence The herbicidal activity of the compounds of the invention in pre-emergence was evaluated according to the following operative procedures. The vegetable species of interest (weeds or crops) were sown in pots with an upper diameter of 10 cm, a height of 10 cm and containing sandy soil. 10 pots were used for each vegetable species. Water was added to each pot in such a quantity as to germinate the seeds. The pots were divided into two groups, each containing 5 pots for each weed or crop. After one day from the sowing, the first set of pots was treated with a hydro-acetonic dispersion containing acetone at 10% in volume, the product under evaluation at the desired concentration and Tween 20 at 0.5%. The second set was treated with a hydro-acetonic solution only, containing acetone at 10% in volume and Tween 20 at 0.5%, and was used as comparison (blank). All pots were kept under observation in a conditioned environment under the following conditions: temperature: 24° C.; relative humidity: 60%; photoperiod: 16 ore; light intensity: 10000 lux. The pots were uniformly watered in order to ensure a sufficient humidity degree for a good development of the plants."}, "Convolvulus sepium [2]": {"test_system": "Convolvulus sepium", "experiment": "Herbicidal activity in pre-emergence", "method": "as §1"}, "Solanum nigrum [3]": {"test_system": "Solanum nigrum", "experiment": "Herbicidal activity in pre-emergence", "method": "as §1"}, "Sida spinosa [4]": {"test_system": "Sida spinosa", "experiment": "Herbicidal activity in pre-emergence", "method": "as §1"}, "Amaranthus retroflexus [5]": {"test_system": "Amaranthus retroflexus", "experiment": "Herbicidal activity in pre-emergence", "method": "as §1"}, "Abutilon theofrasti [6]": {"test_system": "Abutilon theofrasti", "experiment": "Herbicidal activity in pre-emergence", "method": "as §1"}, "Chenopodium album [7]": {"test_system": "Chenopodium album", "experiment": "Herbicidal activity in pre-emergence", "method": "as §1"}, "Galium aparine [8]": {"test_system": "Galium aparine", "experiment": "Herbicidal activity in pre-emergence", "method": "as §1"}, "Portulaca oleracea [9]": {"test_system": "Portulaca oleracea", "experiment": "Herbicidal activity in pre-emergence", "method": "as §1"}, "Ipomea purpurea [10]": {"test_system": "Ipomea purpurea", "experiment": "Herbicidal activity in post-emergence", "method": "(§2) Determination of the Herbicidal Activity and Phytotoxicity in Post-Emergence The herbicidal activity of the compounds of the invention in post-emergence was evaluated according to the following operative procedures. The vegetable species of interest (weeds or crops) were sown in pots with an upper diameter of 10 cm, a height of 10 cm and containing sandy soil. 10 pots were used for each vegetable species. Water was added to each pot in such a quantity as to germinate the seeds. The pots were divided into two groups, each containing 5 pots for each weed or crop. Fifteen days after sowing (ten, in the case of wheat), when the weeds and crops, according to the species, were 10-15 cm high, the first set of pots was treated with a hydro-acetonic dispersion containing acetone at 10% in volume, the product under evaluation at the desired concentration and Tween 20 at 0.5%. The second set was treated with a hydro-acetonic solution only, containing acetone at 10% in volume and Tween 20 at 0.5%, and was used as comparison (blank). All pots were kept under observation in a conditioned environment under the following conditions: temperature: 24° C.; relative humidity: 60%; photo-period: 16 ore; light intensity: 10000 lux. The pots were uniformly watered every other day so as to ensure a humidity degree sufficient for a good development of the plants."}, "Convolvulus sepium [11]": {"test_system": "Convolvulus sepium", "experiment": "Herbicidal activity in post-emergence", "method": "as §2"}, "Solanum nigrum [12]": {"test_system": "Solanum nigrum", "experiment": "Herbicidal activity in post-emergence", "method": "as §2"}, "Sida spinosa [13]": {"test_system": "Sida spinosa", "experiment": "Herbicidal activity in post-emergence", "method": "as §2"}, "Amaranthus retroflexus [14]": {"test_system": "Amaranthus retroflexus", "experiment": "Herbicidal activity in post-emergence", "method": "as §2"}, "Abutilon theofrasti [15]": {"test_system": "Abutilon theofrasti", "experiment": "Herbicidal activity in post-emergence", "method": "as §2"}, "Chenopodium album [16]": {"test_system": "Chenopodium album", "experiment": "Herbicidal activity in post-emergence", "method": "as §2"}, "Galium aparine [17]": {"test_system": "Galium aparine", "experiment": "Herbicidal activity in post-emergence", "method": "as §2"}, "Portulaca oleracea [18]": {"test_system": "Portulaca oleracea", "experiment": "Herbicidal activity in post-emergence", "method": "as §2"}}}
{"smiles": "COC(=O)/C=C(\\COc1cc(-n2c(=O)cc(C(F)(F)F)n(C)c2=O)c(F)cc1Cl)OC", "note": "[Compound No 2, methyl (2E)-4-{2-chloro-4-fluoro-5-[1,2,3,6-tetrahydro-3-methyl-2,6-dioxo-4-(trifluoromethyl)pyrimidin-1-yl]phenoxy}-3-methoxybut-2-enoate]", "values": [{"measurement": "Herbicidal activity in pre-emergence, IP", "setting": "Ipomea purpurea [1]", "result": "5 (5=91% damage—death of the plant)"}, {"measurement": "Herbicidal activity in pre-emergence, CS", "setting": "Convolvulus sepium [2]", "result": "5 (5=91% damage—death of the plant)"}, {"measurement": "Herbicidal activity in pre-emergence, SN", "setting": "Solanum nigrum [3]", "result": "5 (5=91% damage—death of the plant)"}, {"measurement": "Herbicidal activity in pre-emergence, SS", "setting": "Sida spinosa [4]", "result": "5 (5=91% damage—death of the plant)"}, {"measurement": "Herbicidal activity in pre-emergence, AR", "setting": "Amaranthus retroflexus [5]", "result": "5 (5=91% damage—death of the plant)"}, {"measurement": "Herbicidal activity in pre-emergence, AT", "setting": "Abutilon theofrasti [6]", "result": "5 (5=91% damage—death of the plant)"}, {"measurement": "Herbicidal activity in pre-emergence, CA", "setting": "Chenopodium album [7]", "result": "5 (5=91% damage—death of the plant)"}, {"measurement": "Herbicidal activity in pre-emergence, GA", "setting": "Galium aparine [8]", "result": "5 (5=91% damage—death of the plant)"}, {"measurement": "Herbicidal activity in pre-emergence, PO", "setting": "Portulaca oleracea [9]", "result": "5 (5=91% damage—death of the plant)"}, {"measurement": "Herbicidal activity in post-emergence, IP", "setting": "Ipomea purpurea [10]", "result": "5 (5=91% damage—death of the plant)"}, {"measurement": "Herbicidal activity in post-emergence, CS", "setting": "Convolvulus sepium [11]", "result": "5 (5=91% damage—death of the plant)"}, {"measurement": "Herbicidal activity in post-emergence, SN", "setting": "Solanum nigrum [12]", "result": "5 (5=91% damage—death of the plant)"}, {"measurement": "Herbicidal activity in post-emergence, SS", "setting": "Sida spinosa [13]", "result": "5 (5=91% damage—death of the plant)"}, {"measurement": "Herbicidal activity in post-emergence, AR", "setting": "Amaranthus retroflexus [14]", "result": "5 (5=91% damage—death of the plant)"}, {"measurement": "Herbicidal activity in post-emergence, AT", "setting": "Abutilon theofrasti [15]", "result": "5 (5=91% damage—death of the plant)"}, {"measurement": "Herbicidal activity in post-emergence, CA", "setting": "Chenopodium album [16]", "result": "5 (5=91% damage—death of the plant)"}, {"measurement": "Herbicidal activity in post-emergence, GA", "setting": "Galium aparine [17]", "result": "5 (5=91% damage—death of the plant)"}, {"measurement": "Herbicidal activity in post-emergence, PO", "setting": "Portulaca oleracea [18]", "result": "4 (4=71-90% damage)"}]}
